# Assay results as given in patent US5616609A, “Carcinostatic compound and production thereof” (priority 1991, dated 1997).
# Read-outs that look alike come from different tables or passages of the source.
# Columns and labels:
# [1] = test system: Colon 26 large bowel cancer; assay: Colon 26 large bowel cancer, hypodermic transplant in BALB/C mice (Test 3); type: in vivo, mouse (BALB/C); conditions: once a day for 5 days, vs control
# Description: (§1) Hypodermically transplanted to induce solid cancer were Lewis pulmonary cancer cells to BDF1 mice in an amount of 1×10^6 cells per mouse, Clon 26 large bowel cancer cells to BALB/C mice in an amount of 5×10^5 cells per mouse and a 20% homogenate of B-16 melanoma solid cancer to BDF1 mice in an amount of 0.25 ml per mouse. From the following day of the transplantation, gnidimacrin and pimelea factor P2 were administered separately once a day for 5 days. Each test group was compared in apothanasia rate with a control group. The results on gnidimacrin and pimelea factor P2 are shown in Table 3 and Table 4, respectively.
# [2] = test system: H-69 pulmonary cancer cells; assay: Inhibition of proliferation of human pulmonary cancer cells H-69 (Tests 2 and 4); type: cell-based; conditions: pulmonary cancer H-69, RMP-1640 + 10% calf serum, 37° C.
# Description: (§2) Cells of gastric cancer, pulmonary cancer, liver cancer and leukemia, which had been separated from human patients, were separately placed in portions of RMP-1640 medium containing 10% calf serum and then incubated at 37° C. for 4 days in a 5% CO2 -incubator to obtain a cell population of 10^4 /ml. To the cells of each cancer kind so cultured, stelleramacrin was added at varied concentrations, and the concentration (IC50) of each test compound at which proliferation of the human cancer cells was inhibited by 50% was deterimined.
# as §2, with “separately placed on portions of” for “separately placed in portions of”, “so cultured, gnidimacrin or pimelea factor was added” for “so cultured, stelleramacrin was added”, “(IC50) of the test compound” for “(IC50) of each test compound”, “50% was determined.” for “50% was deterimined.”
# B-16 melanoma = assay: B-16 melanoma, hypodermic transplant in BDF1 mice (Test 3); type: in vivo, mouse (BDF1); conditions: once a day for 5 days, vs control
# Description: as §1
# [3] = test system: MKV-45 gastric cancer cells; assay: Inhibition of proliferation of human gastric cancer cells MKV-45 (Tests 2 and 4); type: cell-based; conditions: gastric cancer MKV-45, RMP-1640 + 10% calf serum, 37° C.
# Description: as §2
# as §2, with “separately placed on portions of” for “separately placed in portions of”, “so cultured, gnidimacrin or pimelea factor was added” for “so cultured, stelleramacrin was added”, “(IC50) of the test compound” for “(IC50) of each test compound”, “50% was determined.” for “50% was deterimined.”
# Meth A fibrosarcoma = Meth A fibrosarcoma solid cancer in male BALB/c mice, injection into the cancer (Test 5); type: in vivo, mouse (BALB/c); conditions: 0.001 mg/Kg injected into solid cancer once a day for 5 days, 21st day
# Description: Using laboratory animals, effects of gnidimacrin on solid cancer were studied. First, intradermally inoculated to male BALB/c mice (each group consisting of 6 mice, each having a weight of 17-21 g) was 0.01 ml of RPMI 1640 solution which contained 10% fetal serum and 1×10^5 cells/ml of Meth A fibrosarcoma. Seven days after the inoculation, solid cancer was formed. Into the solid cancer, gnidimacrin which had been dissolved in physiological saline containing 0.5% CMC, was administered at 0.001 mg/Kg by injection. That administration was conducted once a day for 5 days. On the 21st day from the inoculation of Meth A fibrosarcoma, the cancer was cut out and its weight was compared with that of a control group not administered with gnidimacrin. […] Namely, gnidimacrin inhibited the proliferation of the solid cancer by 81%.
# K-502 leukemia cells = assay: Inhibition of proliferation of human leukemia cells K-502 (Tests 2 and 4); type: cell-based; conditions: leukemia K-502, RMP-1640 + 10% calf serum, 37° C.
# Description: as §2
# as §2, with “separately placed on portions of” for “separately placed in portions of”, “so cultured, gnidimacrin or pimelea factor was added” for “so cultured, stelleramacrin was added”, “(IC50) of the test compound” for “(IC50) of each test compound”, “50% was determined.” for “50% was deterimined.”
# [4] = test system: N-237 pulmonary cancer cells; assay: Inhibition of proliferation of human pulmonary cancer cells N-237 (Tests 2 and 4); type: cell-based; conditions: pulmonary cancer N-237, RMP-1640 + 10% calf serum, 37° C.
# Description: as §2
# as §2, with “separately placed on portions of” for “separately placed in portions of”, “so cultured, gnidimacrin or pimelea factor was added” for “so cultured, stelleramacrin was added”, “(IC50) of the test compound” for “(IC50) of each test compound”, “50% was determined.” for “50% was deterimined.”
# [5] = test system: K-III gastric cancer cells; assay: Inhibition of proliferation of human gastric cancer cells K-III (Tests 2 and 4); type: cell-based; conditions: RMP-1640 + 10% calf serum, 37° C.
# Description: as §2
# as §2, with “separately placed on portions of” for “separately placed in portions of”, “so cultured, gnidimacrin or pimelea factor was added” for “so cultured, stelleramacrin was added”, “(IC50) of the test compound” for “(IC50) of each test compound”, “50% was determined.” for “50% was deterimined.”
# [6] = test system: solid cancer such as gastric cancer, pulmonary cancer, liver cancer; assay: Inhibiting action against solid cancer (summary statement); conditions: liver cancer or the like
# [7] = test system: Lewis pulmonary cancer cells; assay: Lewis pulmonary cancer in mice, intravenous administration; type: in vivo, mouse; conditions: 0.06 mg/Kg
# [8] = test system: PC-14 pulmonary cancer cells; assay: Inhibition of proliferation of human pulmonary cancer cells PC-14 (Tests 2 and 4); type: cell-based; conditions: pulmonary cancer PC-14, RMP-1640 + 10% calf serum, 37° C.
# Description: as §2
# as §2, with “separately placed on portions of” for “separately placed in portions of”, “so cultured, gnidimacrin or pimelea factor was added” for “so cultured, stelleramacrin was added”, “(IC50) of the test compound” for “(IC50) of each test compound”, “50% was determined.” for “50% was deterimined.”
# HLE liver cancer cells = assay: Inhibition of proliferation of human liver cancer cells HLE (Tests 2 and 4); type: cell-based; conditions: RMP-1640 + 10% calf serum, 37° C.
# Description: as §2
# as §2, with “separately placed on portions of” for “separately placed in portions of”, “so cultured, gnidimacrin or pimelea factor was added” for “so cultured, stelleramacrin was added”, “(IC50) of the test compound” for “(IC50) of each test compound”, “50% was determined.” for “50% was deterimined.”
# [9] = test system: Lewis pulmonary cancer cells; assay: Lewis pulmonary cancer, hypodermic transplant in BDF1 mice (Test 3); type: in vivo, mouse (BDF1); conditions: once a day for 5 days, vs control
# Description: as §1
# [10] = test system: MKU-28 gastric cancer cells; assay: Inhibition of proliferation of human gastric cancer cells MKU-28 (Tests 2 and 4); type: cell-based; conditions: gastric cancer MKU-28, RMP-1640 + 10% calf serum, 37° C.
# Description: as §2
# as §2, with “separately placed on portions of” for “separately placed in portions of”, “so cultured, gnidimacrin or pimelea factor was added” for “so cultured, stelleramacrin was added”, “(IC50) of the test compound” for “(IC50) of each test compound”, “50% was determined.” for “50% was deterimined.”
# [11] = test system: MKV-74 gastric cancer cells; assay: Inhibition of proliferation of human gastric cancer cells MKV-74 (Tests 2 and 4); type: cell-based; conditions: gastric cancer MKV-74, RMP-1640 + 10% calf serum, 37° C.
# Description: as §2
# as §2, with “separately placed on portions of” for “separately placed in portions of”, “so cultured, gnidimacrin or pimelea factor was added” for “so cultured, stelleramacrin was added”, “(IC50) of the test compound” for “(IC50) of each test compound”, “50% was determined.” for “50% was deterimined.”
# [12] = test system: LU-99 pulmonary cancer cells; assay: Inhibition of proliferation of human pulmonary cancer cells LU-99 (Tests 2 and 4); type: cell-based; conditions: pulmonary cancer LU-99, RMP-1640 + 10% calf serum, 37° C.
# Description: as §2
# as §2, with “separately placed on portions of” for “separately placed in portions of”, “so cultured, gnidimacrin or pimelea factor was added” for “so cultured, stelleramacrin was added”, “(IC50) of the test compound” for “(IC50) of each test compound”, “50% was determined.” for “50% was deterimined.”
# [13] = test system: PC-7 pulmonary cancer cells; assay: Inhibition of proliferation of human pulmonary cancer cells PC-7 (Tests 2 and 4); type: cell-based; conditions: pulmonary cancer PC-7, RMP-1640 + 10% calf serum, 37° C.
# Description: as §2
# as §2, with “separately placed on portions of” for “separately placed in portions of”, “so cultured, gnidimacrin or pimelea factor was added” for “so cultured, stelleramacrin was added”, “(IC50) of the test compound” for “(IC50) of each test compound”, “50% was determined.” for “50% was deterimined.”
# [14] = test system: mouse leukemia cell P-388; assay: P-388 mouse leukemia, intraperitoneal transplant in BDF1 mice, survival (Test 1); type: in vivo; conditions: 1 mg/kg, once a day for 5 days
# Source text: The mouse leukemia cell P-388 was intraperitoneally transplanted to BDF1 mice in an amount of 1×10^6 cells per mouse. From the following day, each test drug was intraperitoneally administered to the mice once a day for 5 days. Each test group was compared in the number of survival days with a control group to determine an apothanasia rate.
# Acute toxicity (LD50) = conditions: in vivo; species and route not given
SMILES,"IC50 ([2]; Homo sapiens, read-out: IC50) [µg/mL]","IC50 ([3]; Homo sapiens, read-out: IC50) [µg/mL]","IC50 (K-502 leukemia cells; Homo sapiens, read-out: IC50) [µg/mL]","IC50 ([4]; Homo sapiens, read-out: IC50) [µg/mL]","IC50 ([5]; Homo sapiens, read-out: IC50) [µg/mL]",inhibiting action against solid cancer [6],"IC50 ([8]; Homo sapiens, read-out: IC50) [µg/mL]","IC50 (HLE liver cancer cells; Homo sapiens, read-out: IC50) [µg/mL]","IC50 ([10]; Homo sapiens, read-out: IC50) [µg/mL]","IC50 ([11]; Homo sapiens, read-out: IC50) [µg/mL]","IC50 ([12]; Homo sapiens, read-out: IC50) [µg/mL]","IC50 ([13]; Homo sapiens, read-out: IC50) [µg/mL]",also measured
"C=C(C)[C@@]12C[C@@H](COC(=O)c3ccccc3)[C@@]34OC5(O[C@@H]1[C@@H]3[C@@H]1O[C@]1(CO)[C@@H](O)[C@@]1(O)[C@H]4[C@H]([C@H](C)[C@@H]1OC(=O)c1ccccc1)[C@H](C)CCCCCC[C@H]5O)O2 (single isomer, unassigned) [Gnidimacrin, gnidimacrin]",0.6,0.0001,0.0025,0.2,0.0006,strong inhibiting action,0.85,2,0.006,> 1,1,0.5,Apothanasia rate ([1]; 0.01 mg/kg): 26.8%; Apothanasia rate (B-16 melanoma; 0.02 mg/kg): 49.2%; average cancer weight (Meth A fibrosarcoma; control group 2.1 g): 0.4 g; inhibition of the proliferation of the solid cancer (Meth A fibrosarcoma; vs control): 81%; Apothanasia rate [7]: 47.8%; Apothanasia rate ([9]; 0.02 mg/kg): 40.0%
"C=C(C)C12CC(COC(=O)c3ccccc3)C34OC5(OC1C3C1OC1(CO)C(O)C1(O)C(O)C(C)C(C(C)CCCCCCC5O)C14)O2 (single isomer, unassigned) [Stelleramacrin A]",10.2,0.8,10,5.3,0.1,–,8.4,> 10,0.2,> 10,> 10,5.1,Average number of survival days ([14]; control group 8.08 days): 13.83 days; Apothanasia rate ([14]; survival days vs control): 71%; LD50 (Acute toxicity (LD50)): 5 mg/kg
"C=C(C)[C@]12C[C@@H](C)[C@@]34OC5(CCCCCCC[C@H](C)[C@H]6[C@H](C)[C@H](OC(=O)c7ccccc7)[C@@](O)([C@H](O)[C@@]7(CO)O[C@H]7[C@H]3[C@H]1O5)[C@@H]64)O2 [Pimelea factor P2, pimelea factor P2]",–,–,–,–,–,strong inhibiting action,–,–,–,–,–,–,Apothanasia rate ([1]; 0.05 mg/kg): 18.5%; IC50 [2]: 7 µg/mL; Apothanasia rate (B-16 melanoma; 0.1 mg/kg): 41.8%; IC50 [3]: 0.005 µg/mL; IC50 (K-502 leukemia cells): 0.3 µg/mL; IC50 [4]: 3.8 µg/mL; IC50 [5]: 0.003 µg/mL; IC50 [8]: 3.2 µg/mL; IC50 (HLE liver cancer cells): 10 µg/mL; Apothanasia rate ([9]; 0.1 mg/kg): 35.2%; IC50 [10]: 0.01 µg/mL; IC50 [11]: 10 µg/mL; IC50 [12]: 10 µg/mL; IC50 [13]: 1.7 µg/mL
